# Results published in patent US4263427A, “Monensin urethane derivatives” (priority 1979, dated 1981).
# Like-named read-outs stand apart in the source and are kept apart here.
# Columns and labels:
# Bacillus sp. TA 27860 = experiment: Minimum Inhibitory Concentration, agarwell diffusion assay (Table 6); assay type: cell-based; conditions: for MIC: Bacillus
# Excerpt: (§1) (a) Lowest twofold dilution giving zone of inhibition in the agarwell
# (§2) (b) NRRL collection number, all the rest ate ATCC numbers.
# [1] = test system: Paceilomyces variotl 25820; experiment: as above; assay type: cell-based; conditions: for MIC: read-out: Minimum Inhibitory Concentration, Paceilomyces variotl 25820
# Excerpt: as §1, §2
# MycoBacterium phiel 355 = experiment: as above; assay type: cell-based; conditions: for MIC: Mycobacterium, 355, read-out: Minimum Inhibitory Concentration, MycoBacterium phiel 355
# Excerpt: as §1, §2
# [2] = test system: Streptococcus cellulosac 3313; experiment: as above; assay type: cell-based; conditions: for MIC: Streptococcus, 3313, read-out: Minimum Inhibitory Concentration, Streptococcus cellulosac 3313
# Excerpt: as §1, §2
# [3] = test system: Streptococcus faecium 8043; experiment: as above; assay type: cell-based
# Excerpt: as §1, §2
# Bacillus subtilis 583 = experiment: as above; assay type: cell-based
# Excerpt: as §1, §2
# Bacillus megaterium 8CU = experiment: as above; assay type: cell-based; conditions: for MIC: Priestia megaterium, 8CU, read-out: Minimum Inhibitory Concentration, Bacillus megaterium 8CU
# Excerpt: as §1, §2
# Sarcina lutca 9341 = experiment: as above; assay type: cell-based; conditions: for MIC: Sarcina, 9341, read-out: Minimum Inhibitory Concentration, Sarcina lutca 9341
# Excerpt: as §1, §2
# Bacillus sp. E 27859 = experiment: as above; assay type: cell-based; conditions: for MIC: Bacillus
# Excerpt: as §1, §2
# Staph. aureus 6538 = experiment: as above; assay type: cell-based; conditions: for MIC: Staphylococcus aureus, 6538, read-out: Minimum Inhibitory Concentration, Staph. aureus 6538
# Excerpt: as §1, §2
# [4] = Oral antihypertensive activity: blood pressure and heart rate (Table 9); assay type: in vivo; conditions: oral dose 10 mg/kg
# Excerpt: Compounds of formula I, and their pharmaceutically acceptable salts are orally active as antihypertensive agents.
# rumen fluid = conditions: 50 ppm; control 100
# Eimeria tenella = experiment: Anti-coccidial effect of monensin urethanes added to the feed of infected chickens (Table 7); assay type: in vivo; conditions: 75 ppm in feed; infected untreated control 3.0; less than 2.5 significant
# Procedure: This test utilizes ten chickens per drug group. Ten chickens are employed as a weight control and ten chickens as an infected control. The drug is given 48 hours in advance of the infection. One gm. of the test drug is mixed in a mechanical mixer with a sufficient amount of chicken feed to result in the desired dosage. The infection consists of approximately 200,000 oocysts given orally by pipette. The tests lasts for eleven days and then the surviving birds are autopsied and examined for gross lesions in the ceca. The test birds are rated according to the number of survivors and the number of cecal lesions. The results are expressed as average degree of infection (A.D.I.). An average degree of infection of less than 2.5 is considered to be significant.
# [5] = SP.TA27860, Bacillus sp. TA 27860, read-out: Minimum Inhibitory Concentration
# [6] = Enterococcus faecium, 8043, Streptococcus faecium 8043, read-out: Minimum Inhibitory Concentration
# [7] = Bacillus subtilis, 583, Bacillus subtilis 583 (NRRL), read-out: Minimum Inhibitory Concentration
# [8] = SP.E27859, Bacillus sp. E 27859, read-out: Minimum Inhibitory Concentration
Structure (SMILES),MIC (Bacillus sp. TA 27860; [5]),MIC [1],MIC (MycoBacterium phiel 355),MIC [2],"MIC [3, 6]",MIC (Bacillus subtilis 583; [7]),MIC (Bacillus megaterium 8CU),MIC (Sarcina lutca 9341),MIC (Bacillus sp. E 27859; [8]),MIC (Staph. aureus 6538),other results
"CCC1(C2OC(C3OC(O)(COC(=O)NCCc4ccccc4)C(C)CC3C)CC2C)CCC(C2(C)CCC3(CC(O)C(C)C(C(C)C(OC)C(C)C(=O)O)O3)O2)O1 (stereo not shown) [Monensin A, 2-phenethylurethane]",1.6 µg/mL,12.5 µg/mL,6.3 µg/mL,12.5 µg/mL,0.4 µg/mL,1.6 µg/mL,0.8 µg/mL,1.6 µg/mL,0.8 µg/mL,6.3 µg/mL,"Day of Maximum Change, Blood Pressure [4]: 5 days; Day of Maximum Change, Heart Rate [4]: 2 days; Maximum Change (%), Blood Pressure [4]: 15%; Maximum Change (%), Heart Rate [4]: 18%; Mean Blood Pressure at time of maximum effect ([4]; at time of maximum effect): 189 mm Hg; Mean Blood Pressure before treatment ([4]; before treatment): 223 mm Hg; Rate of Gas Production, Percent Production of Control Fermentations (rumen fluid): 101.7%; Total VFA, Percent Production of Control Fermentations (rumen fluid): 84.3%"
"CCC1(C2OC(C3OC(O)(COC(=O)Nc4ccc([N+](=O)[O-])cc4)C(C)CC3C)CC2C)CCC(C2(C)CCC3(CC(O)C(C)C(C(C)C(OC)C(C)C(=O)O)O3)O2)O1 (stereo not shown) [Monensin A, 4-nitrophenylurethane]",–,–,–,–,–,–,–,–,–,–,Average Degree of Infected (A.D.I.) (Eimeria tenella): 0.5
"CCC1(C2OC(C3OC(O)(COC(=O)Nc4ccc(C(C)=O)cc4)C(C)CC3C)CC2C)CCC(C2(C)CCC3(CC(O)C(C)C(C(C)C(OC)C(C)C(=O)O)O3)O2)O1 (stereo not shown) [Monensin A,4-(methylcarbonyl) phenylurethane]",0.8 µg/mL,6.3 µg/mL,6.3 µg/mL,3.1 µg/mL,0.8 µg/mL,1.6 µg/mL,1.6 µg/mL,1.6 µg/mL,0.2 µg/mL,1.6 µg/mL,–
"CCC1(C2OC(C3OC(O)(COC(=O)Nc4ccc(OC)cc4)C(C)CC3C)CC2C)CCC(C2(C)CCC3(CC(O)C(C)C(C(C)C(OC)C(C)C(=O)O)O3)O2)O1 (stereo not shown) [Monensin A,4-methoxyphenylurethane]",–,–,1.6 µg/mL,6.3 µg/mL,–,–,0.8 µg/mL,1.6 µg/mL,–,1.6 µg/mL,"MIC (Bacillus sp. TA 27860; SP.TA27860, read-out: Minimum Inhibitory Concentration, Bacillus sp. TA 27860): 6.3 µg/mL; MIC ([3]; Enterococcus faecium, 8043, read-out: Minimum Inhibitory Concentration, Streptococcus faecium 8043): 0.4 µg/mL; MIC (Bacillus subtilis 583; Bacillus subtilis, 583, read-out: Minimum Inhibitory Concentration, Bacillus subtilis 583 (NRRL)): 0.8 µg/mL; MIC (Bacillus sp. E 27859; SP.E27859, read-out: Minimum Inhibitory Concentration, Bacillus sp. E 27859): 0.1 µg/mL"
"COC(C(C)C(=O)O)C(C)C1OC2(CCC(C)(C3CCC(C)(C4OC(C5OC(O)(COC(=O)NC(C)c6ccccc6)C(C)CC5C)CC4C)O3)O2)CC(O)C1C [Monensin B, (S)-1-phenethylurethane]",–,–,–,–,–,–,–,–,–,–,"Minimum Inhibitory Concentration (Bacillus sp. TA 27860; Bacillus sp. TA 27860, listed as Monensin B,(S)-1-phenethylurethane): 0.2 meg/ml; Minimum Inhibitory Concentration ([1]; Paceilomyces variotl 25820, listed as Monensin B,(S)-1-phenethylurethane): 6.3 meg/ml; Minimum Inhibitory Concentration (MycoBacterium phiel 355; MycoBacterium phiel 355): 6.3 meg/ml; Minimum Inhibitory Concentration ([2]; Streptococcus cellulosac 3313, listed as Monensin B,(S)-1-phenethylurethane): 6.3 meg/ml; Minimum Inhibitory Concentration ([3]; Streptococcus faecium 8043, listed as Monensin B,(S)-1-phenethylurethane): 0.2 meg/ml; Minimum Inhibitory Concentration (Bacillus subtilis 583; Bacillus subtilis 583 (NRRL)): 0.8 meg/ml; Minimum Inhibitory Concentration (Bacillus megaterium 8CU; Bacillus megaterium 8CU, listed as Monensin B,(S)-1-phenethylurethane): 0.4 meg/ml; Minimum Inhibitory Concentration (Sarcina lutca 9341; Sarcina lutca 9341): 1.6 meg/ml; Minimum Inhibitory Concentration (Bacillus sp. E 27859; Bacillus sp. E 27859, listed as Monensin B,(S)-1-phenethylurethane): 0.1 meg/ml; Minimum Inhibitory Concentration (Staph. aureus 6538; Staph. aureus 6538, listed as Monensin B,(S)-1-phenethylurethane): 1.6 meg/ml"
"CCCCNC(=O)OCC1(O)OC(C2CC(C)C(C3(CC)CCC(C4(C)CCC5(CC(O)C(C)C(C(C)C(OC)C(C)C(=O)O)O5)O4)O3)O2)C(C)CC1C (stereo not shown) [Monensin A, N-butylurethane]",0.4 µg/mL,6.3 µg/mL,6.3 µg/mL,3.1 µg/mL,0.2 µg/mL,0.4 µg/mL,0.8 µg/mL,1.6 µg/mL,0.2 µg/mL,1.6 µg/mL,–
